Laboratory results: patent US9597407B2, “Targeted antimicrobial moieties” (C3 Jian, Inc., priority 2009, dated 2017)
“Also recorded” adds a separate entry of the source. Square brackets hold non-standard residues; d marks the D form. Ends that are not written are not given here. dOrn = NCCC[C@@H](N)C(=O)O

test system: bacteria; test: Binding of targeting peptides to microorganisms (Table 3); details: data not shown

| Substance | bacterial binding |
| --- | --- |
| DAANEA-GGG [BL-1] | no bacterial binding |

same assay, conditions: microorganism bound by the targeting peptide; binding in aqueous buffers chosen by peptide solubility, preferably 1x PBS

| Substance | Target(s) |
| --- | --- |
| AIEGVIKKGACFKLLRHEMF [PF-167] | S. epidermidis and E. coli and C. albicans and MRSA and C. jeikeium and C. jejuni |
| HIKETR (Peptide with targeting and/or antimicrobial activity) [PF-222] | S. epidermidis |
| MKKLVAALAVIVILTGCVYDPVNYDKIHDQEFQDHLRQNG [PF-252] | S. mutans |
| MLTSRKKRLKKIVEEQNKKDESI [PF-336] | S. mutans; also recorded: E. coli |

same assay, conditions: microorganism the targeting peptide binds; binding in aqueous buffers that varied with peptide solubility, preferably 1x PBS

| Substance | Target(s) |
| --- | --- |
| 1T-273 (YNEPNYKWLESYKIYKQRCEDRTGMYYTEET; Peptide with targeting and/or antimicrobial activity) [Peptide 1T-273] | F. nucleatum; also recorded: P. gingivalis; also recorded: T. denticola; also recorded: S. mitis; also recorded: S. mutans; also recorded: S. oralis |
| 1T-274 (ETTTEINAIKLHRIKQRSPQGTRRVN; Peptide with targeting and/or antimicrobial activity) [Peptide 1T-274] | F. nucleatum; also recorded: S. mutans; also recorded: S. oralis; also recorded: S. sanguinis |
| 1T-282 (ISLVFPAYT; Peptide with targeting and/or antimicrobial activity) [Peptide 1T-282] | F. nucleatum; also recorded: P. gingivalis; also recorded: S. gordonii; also recorded: S. mitis; also recorded: S. mutans; also recorded: S. oralis; also recorded: S. salivarious; also recorded: S. sanguinis |
| 1T-286 (LGFFNNKADLVKADTERDNRMSSLKIKDL; Peptide with targeting and/or antimicrobial activity) [Peptide 1T-286] | S. sanguinis |
| 1T-287 (KGYPLPFQYRLNNH; Peptide with targeting and/or antimicrobial activity) [Peptide 1T-287] | P. gingivalis; also recorded: T. denticola; also recorded: S. gordonii; also recorded: S. mitis; also recorded: S. mutans; also recorded: S. oralis; also recorded: S. salivarious; also recorded: S. sanguinis |
| 1T-288 (RWVGGEPSADIYLSAKDTKT; Peptide with targeting and/or antimicrobial activity) [Peptide 1T-288] | F. nucleatum; also recorded: S. gordonii; also recorded: S. salivarious; also recorded: S. sanguinis |
| 1T-289 (EPSADIYLSAKDTKT; Peptide with targeting and/or antimicrobial activity) [Peptide 1T-289] | F. nucleatum; also recorded: P. gingivalis; also recorded: S. gordonii; also recorded: S. mitis; also recorded: S. mutans; also recorded: S. oralis; also recorded: S. sanguinis |
| 1T-291 (DMKIIKLYIKILSFLFIKYCNKKLNSVKLKA; Peptide with targeting and/or antimicrobial activity) [Peptide 1T-291] | A. naeslundii; also recorded: F. nucleatum; also recorded: P. gingivalis; also recorded: T. denticola; also recorded: S. mitis; also recorded: S. mutans; also recorded: S. oralis |
| 1T-294 (YDKIADGVFKIGKRGVL; Peptide with targeting and/or antimicrobial activity) [Peptide 1T-294] | T. denticola |
| 1T-295 (KYKLKKIIL; Peptide with targeting and/or antimicrobial activity) [Peptide 1T-295] | S. mitis; also recorded: S. salivarious; also recorded: S. sanguinis |
| 1T-297 (RSLRLNNALTKLPKLWYNRIKEAFYAYNDYDK; Peptide with targeting and/or antimicrobial activity) [Peptide 1T-297] | A. naeslundii; also recorded: F. nucleatum; also recorded: T. denticola; also recorded: S. mitis; also recorded: S. mutans; also recorded: S. oralis |
| 1T-301 (SKLPRVLDASLKL; Peptide with targeting and/or antimicrobial activity) [Peptide 1T-301] | F. nucleatum; also recorded: S. gordonii; also recorded: S. sanguinis |
| 1T-304 (STAGEASRRTASEASRRTAAKLRG; Peptide with targeting and/or antimicrobial activity) [Peptide 1T-304] | P. gingivalis |
| CHA0 (D[dOrn]KTAA[dOrn]K; bridge (positions not given here); not fully specified (bridges)) | P. fluorescens |
| PF-014 (HPTDNKHN; Peptide with targeting and/or antimicrobial activity) | E. coli; also recorded: C. jeikeium |
| PF-016 (RKQYDDLSFNFLY; Peptide with targeting and/or antimicrobial activity) | S. epidermidis; also recorded: E. faecalis; also recorded: C. jeikeium |
| PF-018 (YYKTYFKEV; Peptide with targeting and/or antimicrobial activity) | E. coli; also recorded: C. jeikeium |
| PF-038 (MAYKDEGKETKFAVKGYKD; Peptide with targeting and/or antimicrobial activity) | M. luteus |
| PF-039 (MLEEKNKSL; Peptide with targeting and/or antimicrobial activity) | P. mirabilis; also recorded: C. jeikeium |
| PF-044 (KLKKYIHKPD; Peptide with targeting and/or antimicrobial activity) | S. epidermidis and M. luteus and MRSA and C. jeikeium |
| PF-047 (NQEPSLQQDKEQKDNKG; Peptide with targeting and/or antimicrobial activity) | S. mutans |
| PF-050 (SYYLKRREEKGK; Peptide with targeting and/or antimicrobial activity) | S. epidermidis; also recorded: M. luteus; also recorded: E. coli; also recorded: C. jeikeium |
| PF-054 (VSISRFIGGGHVFNGNNKRNL; Peptide with targeting and/or antimicrobial activity) | S. epidermidis; also recorded: E. coli |
| PF-055 (GHVFNGNNKRNL; Peptide with targeting and/or antimicrobial activity) | S. mutans |
| PF-060 (HSSHL; Peptide with targeting and/or antimicrobial activity) | E. coli; also recorded: C. albicans; also recorded: C. jeikeium |
| PF-062 (MKKKRINNDILGRMIYSSSIDKRNLYNLKYYE; Peptide with targeting and/or antimicrobial activity) | S. epidermidis and M. luteus and E. coli and P. aeruginosa and MRSA and S. pneumoniae and E. faecalis and C. jeikeium |

same assay, conditions: peptide binding in aqueous buffers that varied depending on peptide solubility; preferably 1x PBS

| Substance | Target(s) (microorganisms bound by the targeting peptide) | Target(s) (microorganism bound by the targeting peptide) |
| --- | --- | --- |
| ASKQASKQASKQASKQASKQASRSLKNHLL [PF-523] | S. epidermidis; also recorded: M. luteus; also recorded: C. albicans; also recorded: S. pneumoniae; also recorded: C. jeikeium; also recorded: C. jejuni | – |
| LVLRICTDLFTFIKWTIKQRKS [PF-497] | S. mutans; also recorded: B. subtilis; also recorded: E. coli | – |
| PEIIKIVSGLL [PF-758] | – | S. epidermidis and M. luteus and E. coli and MRSA and S. pneumoniae and E. faecalis and C. jeikeium |
